The target of one experiment is T1, human NOX3 (hNOX3) (Homo sapiens, UniProt Q9HBY0).
T1 construct: pLV-CMV-hNOX3-puro (NM_015718.3); host or cells: HEK293 (CLS GmbH), lentiviral transduction
T1 sequence (Q9HBY0 1-568): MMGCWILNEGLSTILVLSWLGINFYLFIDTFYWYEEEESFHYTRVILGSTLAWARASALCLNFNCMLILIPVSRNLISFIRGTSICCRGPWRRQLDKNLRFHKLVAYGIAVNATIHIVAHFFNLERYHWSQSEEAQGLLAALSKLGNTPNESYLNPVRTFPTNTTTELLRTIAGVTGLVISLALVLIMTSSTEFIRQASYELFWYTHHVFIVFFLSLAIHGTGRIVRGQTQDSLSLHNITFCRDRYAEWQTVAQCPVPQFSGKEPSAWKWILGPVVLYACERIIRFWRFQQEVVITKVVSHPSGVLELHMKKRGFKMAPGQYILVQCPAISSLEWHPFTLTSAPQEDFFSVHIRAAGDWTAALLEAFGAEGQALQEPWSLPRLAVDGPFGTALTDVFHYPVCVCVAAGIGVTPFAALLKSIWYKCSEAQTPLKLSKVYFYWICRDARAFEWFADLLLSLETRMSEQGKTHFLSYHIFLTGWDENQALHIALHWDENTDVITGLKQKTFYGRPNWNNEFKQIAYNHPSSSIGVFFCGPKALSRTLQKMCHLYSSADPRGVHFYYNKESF
T1 sequence (P13498 2-195 partner limits assumed): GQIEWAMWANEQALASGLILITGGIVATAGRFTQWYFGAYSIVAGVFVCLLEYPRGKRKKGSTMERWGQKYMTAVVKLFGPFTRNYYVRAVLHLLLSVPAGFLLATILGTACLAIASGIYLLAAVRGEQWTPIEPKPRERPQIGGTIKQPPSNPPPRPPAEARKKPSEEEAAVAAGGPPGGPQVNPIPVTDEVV
Nature of the experiment: NOX3 inhibition assay (L-012), HEK293 cells stably overexpressing human NOX3. The format is cell-based. The note with it: HEK293-hNOX3, PMA stimulated. From the text:
(§1) Plasmids are Purchased from Vectorbuilder. • for HEK-hNOX1 all necessary subunits are cloned accordingly: • pLV-CMV-hNOX1-puro (NM_007052.5) • pLV-CMV-hNOXO1-blas (NM_172168.3) • pLV-CMV-hp22phox-hygro (NM_000101.4) • pLV-CMV-hNOXA1-neo (NM_006647.2) • for HEK-hNOX3 • pLV-CMV-hNOX3-puro (NM_015718.3)
(§2) 3rd generation lentiviral particles are produced in HEK293 suspension cells by transient transfection of three helper and expression plasmids. Crucial lentivirus supernatants are harvested, clarified by filtration and concentrated by precipitation. Lentivirus titers are determined in transducing units in (TU/mL) by transduction of HT1080 cells and colony forming assay. Parental HEK293 cells, purchased from CLS GmbH, are transduced with replication-incompetent 3rd generation lentiviral particles (MOI 2) and expanded for at least 2 weeks before cryopreservation of tested lots. During cultivation, medium is changed three times per week and cells are sub-cultured at least once per week. Selection antibiotics are added according to the plasmids (1 μg/ml puromycin, 1.5 μg/ml blasticidin, 200 μg/ml G418 and 100 μg/ml hygromycin).
Evaluation of the NOX4 inhibitors on NOX3 activity is assessed in HEK293 cells stably overexpressing human NOX3 (hNOX3).
Cells are seeded in 384 well plates for 2 days. […] Cells are then stimulated with PMA at 0.1 μM to induce NOX3-dependent ROS production. […] Luminescence is measured with an PHERAstar multimode reader.

The target in another experiment is T2, human NOX1 (hNOX1) (Homo sapiens, UniProt Q9Y5S8).
T2 construct: pLV-CMV-hNOX1-puro (NM_007052.5); host or cells: HEK293 (CLS GmbH), lentiviral transduction
T2 sequence (Q9Y5S8 1-564): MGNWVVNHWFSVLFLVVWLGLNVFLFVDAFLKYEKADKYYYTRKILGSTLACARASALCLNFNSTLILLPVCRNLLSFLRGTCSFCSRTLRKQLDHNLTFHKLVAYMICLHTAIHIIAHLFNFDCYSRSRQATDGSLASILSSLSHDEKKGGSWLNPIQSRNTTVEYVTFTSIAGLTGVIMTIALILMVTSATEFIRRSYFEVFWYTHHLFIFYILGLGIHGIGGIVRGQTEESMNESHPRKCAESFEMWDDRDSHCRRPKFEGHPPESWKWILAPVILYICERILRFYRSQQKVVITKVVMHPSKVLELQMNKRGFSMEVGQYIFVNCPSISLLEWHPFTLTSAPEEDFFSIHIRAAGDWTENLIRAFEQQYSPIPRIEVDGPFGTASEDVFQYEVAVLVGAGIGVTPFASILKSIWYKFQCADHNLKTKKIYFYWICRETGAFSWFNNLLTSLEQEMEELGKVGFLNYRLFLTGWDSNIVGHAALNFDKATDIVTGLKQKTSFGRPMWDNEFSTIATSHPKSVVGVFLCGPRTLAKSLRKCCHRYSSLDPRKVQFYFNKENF
T2 sequence (P13498 2-195 partner limits assumed): T1 sequence (P13498 2-195 partner limits assumed)
The experiment can be described thus: NOX1 inhibition assay (L-012), HEK293 cells stably overexpressing human NOX1. The format is cell-based. The note with it: HEK293-hNOX1, PMA stimulated.
From the text: as §1, §2
Evaluation of the NOX4 inhibitors on NOX1 activity is assessed in HEK293 cells stably overexpressing human NOX1 (hNOX1).
Lastly, 8-amino-5-chloro-2,3-dihydro-7-phenyl-pyrido[3,4-d]pyridazine-1,4-dione sodium salt (L-012, CAS 143556-24-5) is added at 400 μM to all wells, and cells are incubated in an incubator for an additional 3 h. Afterwards luminescence is measured with a SpectraMax Paradigm Microplate Reader.

Structures are written as SMILES.

Our source for the IC50 values is patent US20240327429A1, “[1,3]Thiazolo[4,5-d]-pyrimidon-7-ones as inhibitors of NOX4” (Boehringer Ingelheim International GmbH, priority 2023, published 2024).

For orientation: IC50 means the concentration at which inhibition is half-maximal. Low values mean greater potency in that assay, high ones weaker potency in that assay. With `O=c1c2scnc2nc(SCc2ccc(Cl)cc2F)n1-c1cc(F)c(O)c(F)c1` [Example 2, 5-((4-Chloro-2-fluorobenzyl)thio)-6-(3,5-difluoro-4-hydroxyphenyl)thiazolo[4,5-d]-pyrimidin-7(6H)-one], half-maximal inhibition against human NOX3 (hNOX3) (IC50) was put at 4.1 µM.
As to `Cc1cc(Cl)ccc1CSc1nc2ncsc2c(=O)n1-c1cc(F)c(O)c(F)c1` [Example 3], the figures for the IC50 on human NOX3 (hNOX3) and against human NOX1 (hNOX1) were above 100 µM and 1.7 µM, respectively.
Compound `Cc1cc(F)cc(C)c1CSc1nc2ncsc2c(=O)n1-c1cc(F)c(O)c(F)c1` [Example 4] gave an IC50 against human NOX3 (hNOX3) of 4.1 µM.
As to `O=c1c2scnc2nc(SCc2ccc(Cl)cc2)n1-c1cc(F)c(O)c(F)c1` [Example 5], the IC50 is above 100 µM against human NOX3 (hNOX3) and 0.3 µM against human NOX1 (hNOX1).
For the compound `O=c1c2scnc2nc(SCc2ccc(C(F)(F)F)cc2F)n1-c1cc(F)c(O)c(F)c1` [Example 6], the IC50 against human NOX3 (hNOX3) and against human NOX1 (hNOX1) was above 100 µM throughout.
For the compound `O=c1c2scnc2nc(SCc2ccc(C(F)(F)F)cc2)n1-c1cc(F)c(O)c(F)c1` [Example 7], the IC50 against human NOX3 (hNOX3) and against human NOX1 (hNOX1) was above 100 µM in each case.
As to `O=c1c2scnc2nc(SCc2c(F)cc(F)cc2F)n1-c1cc(F)c(O)c(F)c1` [Example 8], the figures for the IC50 at human NOX3 (hNOX3) and against human NOX1 (hNOX1) were 2.7 µM and 1.1 µM, respectively.
For `Cc1cc(F)ccc1CSc1nc2ncsc2c(=O)n1-c1cc(F)c(O)c(F)c1` [Example 9], the IC50 on human NOX3 (hNOX3) is 3.7 µM; on human NOX1 (hNOX1), 1.9 µM.
On to `O=c1c2scnc2nc(SCc2c(F)cc(F)cc2F)n1-c1cc(F)c(O)cc1F` [Example 10, 6-(2,5-Difluoro-4-hydroxyphenyl)-5-((2,4,6-trifluorobenzyl)thio)thiazolo[4,5-d]pyrimidin-7(6H)-one], for which the IC50 against human NOX3 (hNOX3) turned out to be 4 µM; on human NOX1 (hNOX1), 0.5 µM.
For `O=c1c2scnc2nc(SCc2c(F)cc(F)cc2F)n1-c1ccc(O)c(F)c1` [Example 11], in that order: 16.3 µM and 0.9 µM.
Taken in the same sequence, the figures for `O=c1c2scnc2nc(SCc2c(F)cc(F)cc2F)n1-c1ccc(O)c(F)c1F` [Example 12] were 7.6 µM and 2.9 µM.
Taken in the same sequence, the figures for `O=c1c2scnc2nc(SCc2c(F)cc(F)cc2F)n1-c1c(F)cc(O)cc1F` [Example 13] were 16 µM and 3.2 µM.
For the compound `O=c1c2scnc2nc(SCc2c(F)cc(F)cc2F)n1-c1ccc(O)cc1F` [Example 14], the IC50 at human NOX3 (hNOX3) worked out at 25.5 µM; at human NOX1 (hNOX1) it was 2.3 µM.
Take `O=c1c2scnc2nc(SCc2c(F)cc(F)cc2F)n1-c1ccc(O)cc1` [Example 15]: the concentration for half-maximal inhibition (IC50) on human NOX3 (hNOX3) was above 100 µM; against human NOX1 (hNOX1), 4.1 µM.
For the compound `O=c1c2scnc2nc(SCc2c(F)cc(F)cc2F)n1-c1ccc(O)c(Cl)c1` [Example 16], the IC50 worked out at 59.1 µM at human NOX3 (hNOX3) and 15 µM at human NOX1 (hNOX1).
Taken in the same sequence, the figures for `O=c1c2scnc2nc(SCc2c(F)cc(F)cc2F)n1-c1ccc(O)cc1Cl` [Example 17] were 61.4 µM and 14.4 µM.
Taken in the same sequence, the figures for `N#Cc1cc(-n2c(SCc3c(F)cc(F)cc3F)nc3ncsc3c2=O)ccc1O` [Example 18] were 0.4 µM and 0.06 µM.
As to `O=c1c2scnc2nc(SCc2c(F)cc(F)cc2F)n1-c1ccc(O)cn1` [Example 19], the IC50 is above 100 µM against human NOX3 (hNOX3) and 16.9 µM on human NOX1 (hNOX1).
Taken in the same sequence, the figures for `O=c1c2scnc2nc(SCc2c(F)cc(F)cc2F)n1-c1cc(F)c(O)cn1` [Example 20] were 8.1 µM and 7 µM.
On to `O=c1c2scnc2nc(SCc2c(F)cc(F)cc2F)n1-c1ncc(O)cn1` [Example 21, 6-(5-Hydroxypyrimidin-2-yl)-5-((2,4,6-trifluorobenzyl)thio)thiazolo[4,5-d]pyrimidin-7(6H)-one], for which the IC50 against human NOX3 (hNOX3) and at human NOX1 (hNOX1) was above 100 µM each time.
For `O=c1c2scnc2nc(SCc2ccc(Cl)cc2F)n1-c1ccc(O)nc1` [Example 22, 5-((4-Chloro-2-fluorobenzyl)thio)-6-(6-hydroxypyridin-3-yl)thiazolo[4,5-d]pyrimidin-7(6H)-one], the IC50 against human NOX3 (hNOX3) and at human NOX1 (hNOX1) was above 100 µM in each case.
For the compound `Cc1cc(Cl)ccc1CSc1nc2ncsc2c(=O)n1-c1ccc(O)nc1` [Example 23], the IC50 is above 100 µM at human NOX3 (hNOX3) and 48.1 µM against human NOX1 (hNOX1).
Consider `Cc1cc(F)cc(C)c1CSc1nc2ncsc2c(=O)n1-c1ccc(O)nc1` [Example 24], for which the IC50 was above 100 µM against human NOX3 (hNOX3) and 20.6 µM against human NOX1 (hNOX1).
Taken in the same sequence, the figures for `O=c1c2scnc2nc(SCc2ccc(Cl)cc2)n1-c1ccc(O)nc1` [Example 25] were above 100 µM and above 100 µM.
Taken in the same sequence, the figures for `O=c1c2scnc2nc(SCc2ccc(C(F)(F)F)cc2F)n1-c1ccc(O)nc1` [Example 26] were 62.1 µM and 33 µM.
`O=c1c2scnc2nc(SCc2ccc(C(F)(F)F)cc2)n1-c1ccc(O)nc1` [Example 27]: the IC50 stood at 86.8 µM against human NOX3 (hNOX3) and 76 µM against human NOX1 (hNOX1).
Taken in the same sequence, the figures for `O=c1c2scnc2nc(SCc2c(F)cc(F)cc2F)n1-c1ccc(O)nc1` [Example 28] were above 100 µM and 27.1 µM.
For `Cc1cc(F)ccc1CSc1nc2ncsc2c(=O)n1-c1ccc(O)nc1` [Example 29], the IC50 is above 100 µM on human NOX3 (hNOX3) and 33.3 µM against human NOX1 (hNOX1).
On to `O=c1c2scnc2nc(SCc2ccc(F)cc2)n1-c1ccc(O)nc1` [Example 30], for which the half-maximal inhibitory concentration (IC50) was 98.1 µM on human NOX3 (hNOX3) and 37.8 µM against human NOX1 (hNOX1).
In the case of `O=c1c2scnc2nc(SCc2c(F)cc(F)cc2F)n1-c1cnc(O)c(F)c1` [Example 31, 6-(5-Fluoro-6-hydroxypyridin-3-yl)-5-((2,4,6-trifluorobenzyl)thio)thiazolo[4,5-d]-pyrimidin-7(6H)-one], the IC50 against human NOX3 (hNOX3) was above 100 µM; on human NOX1 (hNOX1), 22.9 µM.
Turning to `O=c1c2scnc2nc(SCc2ccc(C(F)(F)F)cc2)n1-c1cnc(O)c(F)c1` [Example 32, 6-(5-Fluoro-6-hydroxypyridin-3-yl)-5-((4-(trifluoromethyl)benzyl)thio)thiazolo[4,5-d]pyrimidin-7(6H)-one], the results for the IC50 against human NOX3 (hNOX3) and against human NOX1 (hNOX1) were 38 µM and above 100 µM, respectively.
For `O=c1c2scnc2nc(SCc2ccc(Cl)cc2)n1-c1cnc(O)c(F)c1` [Example 33], in that order: above 100 µM and 35.5 µM.
`Cc1cc(Cl)ccc1CSc1nc2ncsc2c(=O)n1-c1cnc(O)nc1` [Example 54] registered an IC50 against human NOX3 (hNOX3) of 49.4 µM.
The compound `O=c1c2scnc2nc(SCc2ccc(C(F)(F)F)cc2F)n1-c1cnc(O)nc1` [Example 57] had an IC50 against human NOX3 (hNOX3) above 100 µM.
